Test results: patent US7858635B2 (priority 2005, dated 2010)

How the values were obtained:
M1 muscarinic receptor = target: T1, M1 muscarinic receptor (Homo sapiens, UniProt P11229); test: Functional mobilization of intracellular calcium (FLIPR, Fluo-3), M1-CHO cells; format: cell-based; details: compound nos. 1-454; for Emax: 100% efficacy is the maximum response obtained with the Carbachol control, read-out: M1 Efficacy
T1 construct: expressed in transfected cells; host or cells: CHO cells (M1-CHO, under zeocin and G418 selection)
T1 sequence (P11229 1-460): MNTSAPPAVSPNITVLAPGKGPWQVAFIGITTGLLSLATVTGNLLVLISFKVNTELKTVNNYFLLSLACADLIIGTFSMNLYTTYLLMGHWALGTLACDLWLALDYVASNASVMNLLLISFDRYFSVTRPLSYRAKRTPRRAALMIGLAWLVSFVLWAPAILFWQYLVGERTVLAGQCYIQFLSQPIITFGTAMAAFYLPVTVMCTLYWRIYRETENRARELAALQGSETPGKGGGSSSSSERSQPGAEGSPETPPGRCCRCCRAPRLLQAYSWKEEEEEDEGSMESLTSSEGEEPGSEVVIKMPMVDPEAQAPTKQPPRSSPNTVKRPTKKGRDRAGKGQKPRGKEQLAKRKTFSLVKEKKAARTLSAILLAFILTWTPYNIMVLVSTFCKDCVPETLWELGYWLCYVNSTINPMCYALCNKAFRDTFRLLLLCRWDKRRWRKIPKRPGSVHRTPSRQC
Procedure, shortened: (§1)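 Fluo-3 read-out, ex 488/em 540 nm, 60 sec on FLIPR 3. For agonist mode, compound added directly; for inhibition, 15 min compound pre-incubation before carbachol at EC80 (added as a 3× solution), or co-application. Buffer pH 7.4 with 1 mM probenecid; DMSO 0.5%.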

M4 muscarinic receptor = target: T2, M4 muscarinic receptor (Homo sapiens, UniProt P08173); test: Functional mobilization of intracellular calcium (FLIPR, Fluo-3), M4-CHO cells; format: cell-based; details: compound nos. 1-454; for Emax: 100% efficacy is the maximum response obtained with the Carbachol control, read-out: M4 Efficacy
T2 construct: expressed in transfected cells; host or cells: CHO cells (M4-CHO, under puromycin, zeocin and blasticidin selection)
T2 sequence (P08173 1-479): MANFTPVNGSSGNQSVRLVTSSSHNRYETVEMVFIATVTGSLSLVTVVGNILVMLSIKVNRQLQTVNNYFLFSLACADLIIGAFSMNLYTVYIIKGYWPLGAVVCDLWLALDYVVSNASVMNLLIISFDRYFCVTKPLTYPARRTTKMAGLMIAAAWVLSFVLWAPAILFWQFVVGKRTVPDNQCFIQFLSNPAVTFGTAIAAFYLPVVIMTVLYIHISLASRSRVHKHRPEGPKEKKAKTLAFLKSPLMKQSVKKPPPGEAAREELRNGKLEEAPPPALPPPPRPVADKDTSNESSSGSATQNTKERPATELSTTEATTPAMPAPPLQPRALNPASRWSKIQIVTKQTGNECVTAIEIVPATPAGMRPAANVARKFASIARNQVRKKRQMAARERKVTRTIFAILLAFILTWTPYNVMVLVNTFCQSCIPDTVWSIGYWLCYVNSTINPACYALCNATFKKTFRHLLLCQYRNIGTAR
Procedure, shortened: as §1

[1] = M1-CHO cells, calcium mobilization
[2] = M4-CHO cells, calcium mobilization

Structure (SMILES)	M1 Activity (M1 muscarinic receptor)	Emax (M1 muscarinic receptor) [%]	M4 Activity (M4 muscarinic receptor)	Emax (M4 muscarinic receptor) [%]	M1 Activity (M1 muscarinic receptor; [1])	M4 Activity (M4 muscarinic receptor; [2])
CCOC(=O)N1CCC(N2CCC3(CC2)CN(C(C)=O)c2c(F)cccc23)CC1 [compound 381]	+++ (activity was measured to be less than or equal to 0.7 μM)	65 to 85	+ (activity was measured to be greater than or equal to 4.0 μM)	< 55		
O=C1CC2(CCN(C[C@@H]3C[C@H]4C=C[C@H]3C4)CC2)c2ccccc21 [compound 238]		< 65		< 55	+ (activity was measured to be greater than or equal to 3.0 μM)	+ (activity was measured to be greater than or equal to 4.0 μM)
CN(C)C(=O)N1CC2(CCN(CC3CCN(c4nccs4)C3)CC2)c2cc(F)ccc21 (centres unmarked) [compound 451]	++ (activity was measured to be between 0.7 μM and 3.0 μM)		+++ (activity was measured to be less than or equal to 0.1 μM)			
O=C(O[C@H]1CCOC1)N1C2CCC1CC(N1CCC3(CC1)C(=O)Nc1ccccc13)C2 (some centres unmarked) [compound 301]		< 65		< 55	+ (activity was measured to be greater than or equal to 3.0 μM)	+ (activity was measured to be greater than or equal to 4.0 μM)
c1ccc2c(c1)NCC21CCN(C2CCCCC2)CC1 [compound 375]	+++ (activity was measured to be less than or equal to 0.7 μM)	> 85	+++ (activity was measured to be less than or equal to 0.1 μM)	55 to 70		
CCOC(=O)N1CCC(CN2CCC3(CC2)CN(C(C)=O)c2ccc(OC(F)(F)F)cc23)CC1 [compound 21]		< 65		< 55	++ (activity was measured to be between 0.7 μM and 3.0 μM)	+ (activity was measured to be greater than or equal to 4.0 μM)
CN(C)C(=O)N1CC2(CCN(C3CCN(c4ccccc4F)CC3)CC2)c2cc(F)ccc21 [compound 437]	++ (activity was measured to be between 0.7 μM and 3.0 μM)	65 to 85	++ (activity was measured to be between 0.1 μM and 4.0 μM)	< 55		
CC(=O)N[C@H]1CC2(CCN(C3CCC[C@@H](C)C3)CC2)c2ccccc21 (some centres unmarked) [compound 358]		65 to 85		55 to 70	+++ (activity was measured to be less than or equal to 0.7 μM)	++ (activity was measured to be between 0.1 μM and 4.0 μM)
CCOC(=O)C1CCC(N2CCC3(CC2)CN(C(C)=O)c2ccc(F)cc23)CC1 (centres unmarked) [compound 228]		< 65		< 55	+ (activity was measured to be greater than or equal to 3.0 μM)	+ (activity was measured to be greater than or equal to 4.0 μM)
CCOC(=O)N1CCC(N2CCC3(CC2)CN(C(C)=O)c2ccc(-c4ccc(S(C)(=O)=O)cc4)cc23)CC1 [compound 177]		65 to 85		55 to 70	+++ (activity was measured to be less than or equal to 0.7 μM)	++ (activity was measured to be between 0.1 μM and 4.0 μM)
Clc1ccc2c(c1)C1(CCN(C3CCCCC3)CC1)CO2 [compound 5]		65 to 85		> 70	+++ (activity was measured to be less than or equal to 0.7 μM)	+++ (activity was measured to be less than or equal to 0.1 μM)
Clc1ccc2c(c1)C1(CCO2)CCN([C@@H]2C[C@@H]3CC[C@@H]2C3)CC1 [compound 369]		> 85		> 70	+++ (activity was measured to be less than or equal to 0.7 μM)	++ (activity was measured to be between 0.1 μM and 4.0 μM)
Fc1ccc2c(c1)C1(CCN(CC3CCCCC3)CC1)CN2 [compound 239]		65 to 85		55 to 70	+ (activity was measured to be greater than or equal to 3.0 μM)	+ (activity was measured to be greater than or equal to 4.0 μM)
